≈ marks a conversion by molar mass, not a printed value.
Experiments:
Experiment in all cases: In vitro antibacterial activity, MIC by agar dilution
Type in all cases: cell-based
Settings in all cases: BHI agar, 35-37°C, 20-24 hours, unit assumed
[1] = system: Acinetobacter calcoaceticus CMX 669
Experimental: (§1) Each plate was inoculated with 1:100 (or 1:10 for slow growing strains, primarily Micrococcus and Streptococcus) dilutions of up to 32 different microorganisms, using a Steers replicator block calibrated to deliver approximately 10^4 colony forming units (CFUs). The inoculated plates were incubated at from about 35°C to about 37°C for approximately 20-24 hours. In addition, a control plate using BHI agar containing no test compound was prepared and incubated at the beginning and at the end of each test. Ciprofloxacin was used as the control antibiotic.
(§2) The MIC was defined as the lowest concentration of test compound yielding no growth (a slight haze or sparsely isolated colonies at the inoculum spot) as compared to the growth control containing no test compound.

[2] = system: Enterobacter aerogenes ATCC 13048
Experimental: as §1, §2

[3] = system: Enterococcus faecium ATCC 8043
Experimental: as §1, §2

Escherichia coli DC-2 = system: Escherichia coli DC-2
Experimental: as §1, §2

Escherichia coli H560 = system: Escherichia coli H560
Experimental: as §1, §2

Escherichia coli JUHL = system: Escherichia coli JUHL
Experimental: as §1, §2

Escherichia coli KNK 437 = system: Escherichia coli KNK 437
Experimental: as §1, §2

Escherichia coli SS = system: Escherichia coli SS
Experimental: as §1, §2

[4] = system: Klebsiella pneumoniae ATCC 8045
Experimental: as §1, §2

[5] = system: Micrococcus luteus ATCC 4698
Experimental: as §1, §2

[6] = system: Micrococcus luteus ATCC 9341
Experimental: as §1, §2

[7] = system: Providencia stuartii CMX 640
Experimental: as §1, §2

[8] = system: Pseudomonas aeruginosa 2862
Experimental: as §1, §2

[9] = system: Pseudomonas aeruginosa 5263
Experimental: as §1, §2

[10] = system: Pseudomonas aeruginosa A5007
Experimental: as §1, §2

[11] = system: Pseudomonas aeruginosa BMH10
Experimental: as §1, §2

[12] = system: Pseudomonas aeruginosa K799/61
Experimental: as §1, §2

[13] = system: Pseudomonas aeruginosa K799/WT
Experimental: as §1, §2

Pseudomonas cepacia 296I = system: Pseudomonas cepacia 296I
Experimental: as §1, §2

[14] = system: Staphylococcus aureus 1775
Experimental: as §1, §2

[15] = system: Staphylococcus aureus 642A
Experimental: as §1, §2

[16] = system: Staphylococcus aureus A-5278
Experimental: as §1, §2

[17] = system: Staphylococcus aureus A5177
Experimental: as §1, §2

[18] = system: Staphylococcus aureus ATCC 6538P
Experimental: as §1, §2

[19] = system: Staphylococcus aureus CMX 553
Experimental: as §1, §2

[20] = system: Staphylococcus aureus NCTC 10649
Experimental: as §1, §2

[21] = system: Staphylococcus epidermidis 3519
Experimental: as §1, §2

[22] = system: Streptococcus agalactaciae CMX 508
Experimental: as §1, §2

[23] = system: Streptococcus bovis A5169
Experimental: as §1, §2

[24] = system: Streptococcus pyrogenes 2548 INDUC
Experimental: as §1, §2

[25] = system: Streptococcus pyrogenes CONST
Experimental: as §1, §2

[26] = system: Streptococcus pyrogenes EES61
Experimental: as §1, §2

O=C(O)c1cn(C2CC2)c2cc(N3CCNCC3)c(F)cc2c1=O [Cntl, Ciprofloxacin, reference compound]
MIC values [1]: 0.39 µg/mL (≈ 1.18 µM) | MIC values [2]: 0.05 µg/mL (≈ 0.151 µM) | MIC values [3]: 0.39 µg/mL (≈ 1.18 µM) | MIC values (Escherichia coli DC-2): 0.2 µg/mL (≈ 0.604 µM) | MIC values (Escherichia coli H560): 0.01 µg/mL (≈ 0.0302 µM) | MIC values (Escherichia coli JUHL): 0.01 µg/mL (≈ 0.0302 µM) | MIC values (Escherichia coli KNK 437): 0.2 µg/mL (≈ 0.604 µM) | MIC values (Escherichia coli SS): 0.005 µg/mL (≈ 0.0151 µM) | MIC values [4]: 0.02 µg/mL (≈ 0.0604 µM) | MIC values [5]: 0.78 µg/mL (≈ 2.35 µM) | MIC values [6]: 1.56 µg/mL (≈ 4.71 µM) | MIC values [7]: 0.78 µg/mL (≈ 2.35 µM) | MIC values [8]: 25 µg/mL (≈ 75.4 µM) | MIC values [9]: 12.5 µg/mL (≈ 37.7 µM) | MIC values [10]: 0.1 µg/mL (≈ 0.302 µM) | MIC values [11]: 0.1 µg/mL (≈ 0.302 µM) | MIC values [12]: 0.02 µg/mL (≈ 0.0604 µM) | MIC values [13]: 0.1 µg/mL (≈ 0.302 µM) | MIC values (Pseudomonas cepacia 296I): 3.1 µg/mL (≈ 9.36 µM) | MIC values [14]: > 100 µg/mL | MIC values [15]: 0.39 µg/mL (≈ 1.18 µM) | MIC values [16]: 0.39 µg/mL (≈ 1.18 µM) | MIC values [17]: 0.39 µg/mL (≈ 1.18 µM) | MIC values [18]: 0.2 µg/mL (≈ 0.604 µM) | MIC values [19]: 0.78 µg/mL (≈ 2.35 µM) | MIC values [20]: 0.39 µg/mL (≈ 1.18 µM) | MIC values [21]: 0.39 µg/mL (≈ 1.18 µM) | MIC values [22]: 0.39 µg/mL (≈ 1.18 µM) | MIC values [23]: 1.56 µg/mL (≈ 4.71 µM) | MIC values [24]: 0.39 µg/mL (≈ 1.18 µM) | MIC values [25]: 0.78 µg/mL (≈ 2.35 µM) | MIC values [26]: 0.39 µg/mL (≈ 1.18 µM)

CN1CCN(c2nc3c(-c4ccc(F)cc4)cc(C(=O)O)c(=O)n3cc2F)CC1 [Example 2, 3-Fluoro-9-(4-fluorophenyl)-2-(4-methylpiperazin-1-yl)-6H-6-oxo-pyrido[1,2-a]pyrimidine-7-carboxylic acid]
MIC values [1]: 0.78 µg/mL (≈ 1.95 µM) | MIC values [2]: 0.78 µg/mL (≈ 1.95 µM) | MIC values [3]: 25 µg/mL (≈ 62.4 µM) | MIC values (Escherichia coli DC-2): 12.5 µg/mL (≈ 31.2 µM) | MIC values (Escherichia coli H560): 0.39 µg/mL (≈ 0.974 µM) | MIC values (Escherichia coli JUHL): 0.39 µg/mL (≈ 0.974 µM) | MIC values (Escherichia coli KNK 437): 6.2 µg/mL (≈ 15.5 µM) | MIC values (Escherichia coli SS): 0.05 µg/mL (≈ 0.125 µM) | MIC values [4]: 0.2 µg/mL (≈ 0.5 µM) | MIC values [5]: 25 µg/mL (≈ 62.4 µM) | MIC values [6]: 50 µg/mL (≈ 125 µM) | MIC values [7]: 25 µg/mL (≈ 62.4 µM) | MIC values [10]: 6.2 µg/mL (≈ 15.5 µM) | MIC values [11]: 6.2 µg/mL (≈ 15.5 µM) | MIC values [12]: 0.39 µg/mL (≈ 0.974 µM) | MIC values [13]: 3.1 µg/mL (≈ 7.74 µM) | MIC values (Pseudomonas cepacia 296I): 25 µg/mL (≈ 62.4 µM) | MIC values [14]: 25 µg/mL (≈ 62.4 µM) | MIC values [15]: 0.78 µg/mL (≈ 1.95 µM) | MIC values [16]: 0.78 µg/mL (≈ 1.95 µM) | MIC values [17]: 0.78 µg/mL (≈ 1.95 µM) | MIC values [18]: 0.39 µg/mL (≈ 0.974 µM) | MIC values [19]: 0.78 µg/mL (≈ 1.95 µM) | MIC values [20]: 0.39 µg/mL (≈ 0.974 µM) | MIC values [21]: 0.78 µg/mL (≈ 1.95 µM) | MIC values [22]: 12.5 µg/mL (≈ 31.2 µM) | MIC values [23]: 25 µg/mL (≈ 62.4 µM) | MIC values [24]: 3.1 µg/mL (≈ 7.74 µM) | MIC values [25]: 6.2 µg/mL (≈ 15.5 µM) | MIC values [26]: 6.2 µg/mL (≈ 15.5 µM)

NC1CCN(c2nc3c(C4CC4)cc(C(=O)O)c(=O)n3cc2F)C1 (stereo not shown) [Example 158, 2-(3-Aminopyrrolidin-1-yl)-9-cyclopropyl-3-fluoro-6H-6-oxo-pyrido[1,2-a]pyrimidine-7-carboxylic acid]
MIC values [2]: 0.1 µg/mL (≈ 0.301 µM) | MIC values (Escherichia coli JUHL): 0.02 µg/mL (≈ 0.0602 µM) | MIC values (Escherichia coli SS): 0.01 µg/mL (≈ 0.0301 µM) | MIC values [4]: 0.05 µg/mL (≈ 0.15 µM) | MIC values [7]: 3.1 µg/mL (≈ 9.33 µM) | MIC values [8]: 50 µg/mL (≈ 150 µM) | MIC values [10]: 0.2 µg/mL (≈ 0.602 µM) | MIC values [14]: 100 µg/mL (≈ 301 µM) | MIC values [15]: 0.2 µg/mL (≈ 0.602 µM) | MIC values [16]: 0.78 µg/mL (≈ 2.35 µM) | MIC values [21]: 0.39 µg/mL (≈ 1.17 µM) | MIC values [23]: 6.2 µg/mL (≈ 18.7 µM) | MIC values [24]: 0.78 µg/mL (≈ 2.35 µM)

O=C(O)c1cc(C2CC2)c2nc(N3CCOCC3)c(F)cn2c1=O [Example 165, 9-Cyclopropyl-3-fluoro-2-(morpholin-1-yl)-6H-6-oxo-pyrido[1,2-a]pyrimidine-7-carboxylic acid]
MIC values [1]: 6.2 µg/mL (≈ 18.6 µM) | MIC values [2]: 3.1 µg/mL (≈ 9.3 µM) | MIC values [3]: > 100 µg/mL | MIC values (Escherichia coli DC-2): > 100 µg/mL | MIC values (Escherichia coli H560): 3.1 µg/mL (≈ 9.3 µM) | MIC values (Escherichia coli JUHL): 3.1 µg/mL (≈ 9.3 µM) | MIC values (Escherichia coli KNK 437): > 100 µg/mL | MIC values (Escherichia coli SS): 0.2 µg/mL (≈ 0.6 µM) | MIC values [4]: 0.39 µg/mL (≈ 1.17 µM) | MIC values [5]: > 100 µg/mL | MIC values [6]: > 100 µg/mL | MIC values [7]: > 100 µg/mL | MIC values [10]: 25 µg/mL (≈ 75 µM) | MIC values [11]: 50 µg/mL (≈ 150 µM) | MIC values [12]: 3.1 µg/mL (≈ 9.3 µM) | MIC values [13]: 25 µg/mL (≈ 75 µM) | MIC values (Pseudomonas cepacia 296I): 25 µg/mL (≈ 75 µM) | MIC values [14]: > 100 µg/mL | MIC values [15]: 6.2 µg/mL (≈ 18.6 µM) | MIC values [16]: 6.2 µg/mL (≈ 18.6 µM) | MIC values [17]: 6.2 µg/mL (≈ 18.6 µM) | MIC values [18]: 6.2 µg/mL (≈ 18.6 µM) | MIC values [19]: 6.2 µg/mL (≈ 18.6 µM) | MIC values [20]: 6.2 µg/mL (≈ 18.6 µM) | MIC values [21]: 6.2 µg/mL (≈ 18.6 µM) | MIC values [22]: > 100 µg/mL | MIC values [23]: > 100 µg/mL | MIC values [24]: > 100 µg/mL | MIC values [25]: > 100 µg/mL | MIC values [26]: > 100 µg/mL

O=C(O)c1cc(-c2ccc(F)cc2F)c2nc(N3CCC(O)C3)c(F)cn2c1=O (stereo not shown) [Example 170, 9-(2,4-Difluorophenyl)-3-fluoro-2-(3-hydroxypyrrolidin-1-yl)-6H-6-oxopyrido[1,2-a]pyrimidine-7-carboxylic acid]
MIC values [1]: 0.2 µg/mL (≈ 0.493 µM) | MIC values [2]: 0.39 µg/mL (≈ 0.962 µM) | MIC values [3]: 0.78 µg/mL (≈ 1.92 µM) | MIC values (Escherichia coli DC-2): 3.1 µg/mL (≈ 7.65 µM) | MIC values (Escherichia coli H560): 0.1 µg/mL (≈ 0.247 µM) | MIC values (Escherichia coli KNK 437): 1.56 µg/mL (≈ 3.85 µM) | MIC values (Escherichia coli SS): 0.001 µg/mL (≈ 0.00247 µM) | MIC values [4]: 0.05 µg/mL (≈ 0.123 µM) | MIC values [5]: 1.56 µg/mL (≈ 3.85 µM) | MIC values [6]: 12.5 µg/mL (≈ 30.8 µM) | MIC values [7]: 6.2 µg/mL (≈ 15.3 µM) | MIC values [8]: > 100 µg/mL | MIC values [9]: > 100 µg/mL | MIC values [10]: 0.78 µg/mL (≈ 1.92 µM) | MIC values [11]: 0.78 µg/mL (≈ 1.92 µM) | MIC values [12]: 0.05 µg/mL (≈ 0.123 µM) | MIC values [13]: 0.78 µg/mL (≈ 1.92 µM) | MIC values (Pseudomonas cepacia 296I): 6.2 µg/mL (≈ 15.3 µM) | MIC values [14]: 100 µg/mL (≈ 247 µM) | MIC values [15]: 0.1 µg/mL (≈ 0.247 µM) | MIC values [16]: 0.1 µg/mL (≈ 0.247 µM) | MIC values [17]: 0.1 µg/mL (≈ 0.247 µM) | MIC values [18]: 0.05 µg/mL (≈ 0.123 µM) | MIC values [19]: 0.2 µg/mL (≈ 0.493 µM) | MIC values [20]: 0.05 µg/mL (≈ 0.123 µM) | MIC values [21]: 0.2 µg/mL (≈ 0.493 µM) | MIC values [22]: 0.78 µg/mL (≈ 1.92 µM) | MIC values [23]: 6.2 µg/mL (≈ 15.3 µM) | MIC values [24]: 0.39 µg/mL (≈ 0.962 µM) | MIC values [25]: 0.78 µg/mL (≈ 1.92 µM) | MIC values [26]: 0.78 µg/mL (≈ 1.92 µM)
